From US8551509B2, “Skin agent for external use and cosmetic agent including ubiquinone derivative or salt thereof and method using the same” (Showa Denko K.K., priority 2006, dated 2013)

How the values were obtained:
[1] = Maximum soluble amount in cosmetic liquid of prescription example 1 (HPLC); assay type: physicochemical; conditions: 1.0% added to prescription example 1, insolubles filtered off (1-μm filter paper)
Protocol: Specifically, ubiquinone or ubiquinol was added in an amount corresponding to 1.0%. The resultant suspension was filtered through 1-μm filter paper, and thereby insolubles were removed. The cosmetic liquids B and C were thus prepared.
The final concentrations of ubiquinone and ubiquinol in the cosmetic liquids B and C were measured by HPLC similarly to Example 1, resulting in 0.011% and 0.023%, respectively.

[2] = Maximum ubiquinone concentration in DMEM culture medium including 10% FBS (HPLC); assay type: physicochemical; conditions: DMEM with 10% FBS, 0.03% added, stirred 6 hours at room temperature, filtered
Protocol: To a DMEM culture medium including 10% FBS, reagent ubiquinone was added in an amount corresponding to 0.03%. The mixture was stirred with a stirrer at room temperature for 6 hours. The mixture was filtered through a 0.02 µm filter, and a ubiquinone-containing culture medium was prepared.

[3] = test system: Normal human skin fibroblast cells NB1RGB; conditions: 3 days, 0.007 %
Protocol: Normal human skin fibroblast cells NB1RGB (spared from RIKEN) were inoculated to a DMEM culture medium including 10% FBS on a 9 cm Petri dish such that the normal human skin fibroblast cells NB1RGB were approximately 1.0×10^5 in number per ml. The cells were cultured in a CO2 incubator at 37° C. for 7 days to reach confluent while the culture medium was exchanged every 3 days. […] After the culture, the cells were cleaned three times on the Petri dish each with 10 ml of PBS(−), and were released and recovered using trypsin/EDTA. The cells were then resuspended in 1 ml of PBS(−), and were quickly broken with a homogenizer. Insoluble matters were removed by centrifugal separation at 10000 rpm for 10 minutes, and 10 μl of the supernatant was subjected to HPLC. The remainder was combined with an equivalent amount of hexane, and these were sufficiently mixed together to give a turbid liquid. The turbid liquid was subjected to centrifugal separation at 10000 rpm for 3 minutes, and the resultant supernatant hexane layer was analyzed by HPLC.
Column: Shodex F-511A (manufactured by Showa Denko K.K)
Column temperature: 40° C.
Eluent: methanol/water/phosphoric acid=1000/5/1
Detection: photodiode array 210 nm-370 nm
In the HPLC analysis, ubiquinone used in Synthetic Example 1 and ubiquinol immediately after synthesized in Synthetic Example 1 were used as references. […]

[4] = Water solubility at normal temperature; assay type: physicochemical
[5] = Test of radical scavenging ability (H2-DCFDA fluorescence, AAPH); assay type: biochemical; conditions: final concentration 0.006%, 30 minutes after AAPH addition, 37° C.
Protocol: The resultant solution was added to a 10 mM aqueous sodium hydroxide solution such that the concentration of the agent was 1 mM. The radical fluorescence detecting agent was hydrolyzed in the dark at room temperature for 60 minutes and was activated. The liquid was diluted with Dulbecco's phosphate buffered saline (PBS) to give a diluted liquid with a final concentration of 0.01 mM. […]-40 manufactured by Nihon Emulsion Co., Ltd.). […] The mixture thus prepared was used as a test liquid. A test liquid having a final ubiquinone concentration of 0.006% was prepared in the same manner using ubiquinone. A test liquid was prepared as described above except that the ubiquinone solution was replaced by the same volume of distilled water. This test liquid was used as a negative control. […] The mixture was heated to 37° C. After 30 minutes after the addition, the fluorescence intensity at an excitation wavelength of 495 nm and a fluorescence wavelength of 525 nm of the respective liquids was measured. The fluorescence suppression was obtained as radical scavenging ability of ubiquinone and potassium ubiquinol-1,4-diphosphate.

ubiquinone concentration in the culture medium (probably the maximum) [2] [%] | Concentration in cells after culture: Ubiquinone [3] [ng/mL] | water solubility [4] | Compound | final concentration in the cosmetic liquid (maximum soluble amount) [1] [%] | Fluorescence intensity (Ex 495/Em 525 nm: relative value) [5] [relative value] | Radical scavenging ability (Fluorescence suppression (%)) [5] [%]
 |  |  | COc1c(O)c(C)c(C/C=C(\C)CC/C=C(\C)CC/C=C(\C)CC/C=C(\C)CC/C=C(\C)CC/C=C(\C)CC/C=C(\C)CC/C=C(\C)CC/C=C(\C)CCC=C(C)C)c(O)c1OC [ubiquinol] | 0.023 |  | 
0.007 | 2000 | less than 100 ppm | COC1=C(OC)C(=O)C(C/C=C(\C)CC/C=C(\C)CC/C=C(\C)CC/C=C(\C)CC/C=C(\C)CC/C=C(\C)CC/C=C(\C)CC/C=C(\C)CC/C=C(\C)CCC=C(C)C)=C(C)C1=O [ubiquinone, 2,3-dimethoxy-5-methyl-6-polyprenyl-1,4-benzoquinone] | 0.011 | 13315 | 41
 |  |  | tetrapotassium ubiquinol-1,4-diphosphate |  | 5001 | 78
